# Like-named read-outs stand apart in the source and are kept apart here.
# B1: BMP-7: bone morphogenic protein 7, anti-EMT factor, R&D SYSTEMS catalog number 354-BP (protein, UniProt P18075 293-431, looked up)
# Bone morphogenetic protein 7: STGSKQRSQNRSKTPKNQEALRMANVAENSSSDQRQACKKHELYVSFRDLGWQDWIIAPEGYAAYYCEGECAFPLNSYMNATNHAIVQTLVHFINPETVPKPCCAPTQLNAISVLYFDDSSNVILKKYRNMVVRACGCH
# Tests used:
# [1] = tested on: Human corneal endothelial cells; details: HCEC after subculturing
# Procedure: Next, subculturing was performed with trypsin. Comparison was made between cells cultured in Opti-MEM I Reduced-Serum Medium, Liquid (INVITROGEN catalog number: 31985-070)+8% fetal bovine serum (FBS) (BIOWEST, catalog number: S1820-500)+[…] CaCl2.2H2O (SIGMA catalog number: C7902-500G)+0.08% chondroitin sulfuric acid (SIGMA catalog number: C9819-5G)+20 μg ascorbic acid (SIGMA catalog number: A4544-25G)+50 μg/ml gentamicin (INVITROGEN catalog number: 15710-064)+5 ng/ml EGF (INVITROGEN catalog number: PHG0311) as a normal culture medium, and cells cultured in the above-mentioned culture medium with Smad3 inhibitor (0.3 mM and 3 mM) added thereto.
# [2] = tested on: Human corneal endothelial cells; assay: Culture of human corneal endothelial cells with SB203580 in conjunction with SB431542 (Example 7); format: cell-based; details: HCEC
# Procedure: Corneal endothelial cells were mechanically exfoliated together with basement membranes from research corneas purchased from the Seattle bank, followed by exfoliating from the basement membranes using collagenase for collection, and then primary culturing. […] In addition, culturing was performed using a base culture medium with SB431542 (1 μmol/l, TOCRIS, catalog number:1614) added thereto, with SB203580 (1 μmol/l, CALBIOCHEM, catalog number: 559389) added thereto, and with SB431542 (1 μmol/l) and SB203580 (1 μmol/l) added thereto.
# [3] = tested on: corneal endothelial failure model (bullous keratopathy model); assay: Transplantation of cultured human corneal endothelial cells to cynomolgus monkey bullous keratopathy model (Example 9); format: in vivo
# From the text: Under general anesthesia, the peripheral portion of a cornea of a cynomolgus monkey is cut by 1.5 mm, and a silicon surgical instrument is inserted into an anterior chamber to mechanically currete a corneal endothelial cell, thus creating a bullous keratopathy model. Next, of human corneal endothelial cells cultured by the method according to the present invention ex vivo, 2.0×10^5 were suspended in a basal culture medium, and a ROCK inhibitor having an adhesion promoting effect, Y-27632, was added thereto such that the final concentration would be 100 μmol/l, followed by introduction into the anterior chamber. As a control, 2.0×10^5 human corneal endothelial cells, suspended in a basal culture medium, were introduced without a ROCK inhibitor. After introduction, the model was maintained with its head down for three hours so that the eyeball would be downwards, thus promoting cellular adhesion to the corneal endothelium surface. Therapeutic effects of bullous keratopathy by transplanting a cultured corneal endothelium sheet was evaluated by corneal transparency evaluation through a slit-lamp microscope, and corneal thickness measurement using a ultrasonic tachymeter (FIG. 14). […] Then, similar to Example 2, immunostaining was performed directed to phalloidin, Na^+/K^+-ATPase and ZO-1, followed by taking images using a fluorescence microscope (FIG. 15). […]
# [4] = tested on: monkey corneal endothelial cells; assay: Addition of TGF-β to monkey corneal endothelial cells: cell form and immunostaining (Example 4); format: cell-based, cynomolgus monkey
# Smad2 = assay: Addition of TGF-β to monkey corneal endothelial cells: Western blot of pSmad2/Smad2 (Example 4); format: cell-based, cynomolgus monkey; details: monkey CEC, TGF-β 0, 1, 10 ng/ml
# [5] = tested on: monkey corneal endothelial cells; assay: Addition of TGF-β to monkey corneal endothelial cells: Western blot of Na+/K+-ATPase and ZO-1 (Example 4); format: cell-based, cynomolgus monkey; details: monkey CEC, TGF-β 0, 1, 3, 10, 30 ng/ml, concentration dependent
# [6] = tested on: Human corneal endothelial cells; assay: Na+/K+-ATPase and ZO-1 staining of human corneal endothelial cells treated with BMP-7 (FIG. 10A C-F); format: cell-based
# Procedure: For tissue staining examination, cultured MCECs or HCECs were put into Lab-Tek™ Chamber Slides™ (NUNC A/S, Roskilde, Denmark), fixed with 4% formaldehyde for 10 minutes at a room temperature (RT), and incubated for 30 minutes with 1% bovine serum albumin (BSA). Specifically, cultured MCECs or HCECs on the Lab-Tek™ Chamber Slides™ (NUNCA/S, Roskilde, Denmark) were fixed at a room temperature for 10 minutes in 4% formaldehyde, followed by incubation for 30 minutes together with 1% bovine serum albumin (BSA). In order to examine the phenotype of CEC, immunohistochemical analysis was directed to a protein associated with tight junction, ZO-1 (Zymed Laboratories, Inc., South San Francisco, Calif.), a protein associated with the pumping function, Na^+/K^+-ATPase (Upstate Biotec, Inc., Lake Placid, N.Y.), fibronectin (BD, Franklin Lakes, N.J.), and actine. As markers associated with the function of CEC, ZO-1 and Na^+/K^+-ATPase were used; fibronectin and type 1 collagen were used to evaluate the change in a fibroblastic manner; and staining of actine was used to evaluate the phenotype of the cells. Staining of ZO-1, Na^+/K^+-ATPase, type 1 collagen and fibronectin was each performed using 1:200 dilution of ZO-1 polyclonal antibody, Na^+/K^+-ATPase monoclonal antibody, and fibronectin monoclonal antibody. As to secondary antibody, 1:2000 dilution of Alexa Fluor (registered trademark) 488 label or Alexa Fluor (registered trademark) 594 label goat antimouse IgG (Life Technologies) was used. Staining of actine was performed using 1:400 dilution of Alexa Fluor (registered trademark) 488 label phalloidin (Life Technologies). Next, the nucleus of each cell was stained with DAPI (Vector Laboratories, Inc., Burlingame, Calif.) or PI (Sigma-Aldrich). Next, the slides were observed through a fluorescence microscope (TCS SP2 AOBS; Leica Microsystems, Welzlar, Germany).
# (§1) Next, by using three different concentrations, BMP7 was able to suppress the change in a HCEC to a fibroblast phenotype and to maintain the function thereof. […] Thus, this molecule is used to antagonize an EMT process [Zeisberg M, et al. (2003) Nat Med 9: 964-968], [Simic P, et al. (2007) EMBO Rep 8: 327-331], [Buijs J T, et al. (2007) Am J Pathol 171: 1047-1057], [Zeisberg M, et al. (2007) J Biol Chem 282: 23337-23347]. […] Fibroblast-like HCEC was treated with BMP-7 in the concentration ranging from 10 to 1,000 ng/ml.
# [7] = tested on: Human corneal endothelial cells; assay: Culture of human corneal endothelial cells with BMP-7: phase-contrast and phalloidin staining (Example 6); format: cell-based
# Procedure: as §1
# [8] = HCEC, three concentrations of BMP-7 vs additive-free control
# [9] = fibroblast-like HCEC, BMP-7 10 to 1,000 ng/ml
molecule,measurement,setting,value
"COc1cc2c(cc1OC)CN(C(=O)/C=C/c1c(-c3ccccc3)n(C)c3ncccc13)CC2 [Smad3 inhibitor, 6,7-dimethoxy-2-((2E)-3-(1-methyl-2-phenyl-1H-pyrrolo[2,3-b]pyridine-3-yl-prop-2-enoyl))-1,2,3,4-tetrahydroiso quinolone]",cell form (phase-contrast microscope),[1]; Smad3 inhibitor 0.3 mM vs normal culture medium,a layer of polygonal cells with high density were maintained
same,cell form (phase-contrast microscope),[1]; Smad3 inhibitor 3 mM vs normal culture medium,a layer of polygonal cells with high density were maintained
"C[S+]([O-])c1ccc(-c2nc(-c3ccc(F)cc3)c(-c3ccncc3)[nH]2)cc1 (centres unmarked) [SB203580, 4-[4-(4-fluorophenyl)-2-(4-methylsulfinylphenyl)-1H-imidazole-5-yl]pyridine]",corneal endothelium density,[2]; SB203580 1 μmol/l added to SB431542 1 μmol/l,increased
same,culture normalization,"[2]; SB203580 1 μmol/l in conjunction with SB431542 1 μmol/l, repeated subculturing",culture normalization was enhanced
"C[C@@H](N)[C@H]1CC[C@H](C(=O)Nc2ccncc2)CC1.Cl.Cl.O (relative stereo) [Y-27632, (R)-(+)-trans-(4-pyridyl)-4-(1-aminoethyl)-cyclohexanecarboxamide 2 hydrochloride 1 hydrate]",therapeutic result: corneal transparency (slit-lamp microscope) and corneal thickness,"[3]; 2.0×10^5 cultured human corneal endothelial cells into anterior chamber, with or without Y-27632 100 μmol/l",further improved
same,"therapeutic result: immunostaining of phalloidin, Na+/K+-ATPase and ZO-1 of extracted corneas","[3]; 2.5 months after introduction, cells alone or cells + ROCK inhibitor",further improved
"TGF-β: transforming growth factor-β, R&D SYSTEMS catalog number 240-B, added to induce transformation",cell form of normal phenotype after exposure to exogenous TGF-β,"[4]; monkey CEC cultured to sub-confluency, TGF-β1 0, 1, 10 ng/mL",transformed into a fibroblast-like cell
same,staining patterns of Na+/K+-ATPase and ZO-1 in plasma membranes,[4]; monkey CEC normal phenotype exposed to TGF-β,completely lost
same,phosphorylation of Smad2 (Western blot),Smad2,greatly increased in the concentration dependent form
same,expression of Na+/K+-ATPase and ZO-1 at the protein level (Western blot),[5],significantly decreased
B1,maintaining CEC in polygonal form and contact inhibition phenotype with positive expression of function-associated marker,"[6]; HCEC, BMP-7 10 ng/ml",tendency was seen
same,maintaining CEC in polygonal form and contact inhibition phenotype with positive expression of function-associated marker,"[6]; HCEC, BMP-7 100 ng/ml",tendency increased
same,maintaining CEC in polygonal form and contact inhibition phenotype with positive expression of function-associated marker,"[6]; HCEC, BMP-7 1,000 ng/ml",tendency was more significant
same,percentage of Na+/K+-ATPase positive cell,[6]; [8],significantly increased
same,percentage of ZO-1 positive cell,[6]; [8],significantly increased
same,intracellular localization of Na+/K+-ATPase and ZO-1,[6]; [9],maintained the intracellular localization of Na^+/K^+-ATPase and ZO-1 in a cell membrane
same,harmful effects with regard to the forms or functions,HCEC,"not seen any clear, harmful effects"
same,cell form (phalloidin staining and phase-contrast microscope),"[7]; HCEC subcultured in conditioned culture medium with BMP-7 100 ng/ml, control transformed, multi-layered",the form of a layer of polygonal cells was maintained
same,cell form and actine cytoskeleton distribution (phalloidin staining),[7]; [9],"allowed for a normal hexagonal cell form, and allowed for cytoskeleton distribution on the cell surface of actine"
same,elongated cell form of fibroblast phenotype (phase-contrast),"[7]; fibroblast-like HCEC, BMP-7 10 to 1,000 ng/ml, concentration-dependent manner",converted into a polygonal cell form
